Measured values published in patent publication US12391701B2, “Chromene-based compounds, methods and uses thereof” (University of Minho, priority 2019, dated 2025).

Assays:
Format in all cases: cell-based
[1] = tested on: cediranib-resistant Caki-2 cell line; assay: Cell viability, cediranib-resistant Caki-2; conditions: for IC50: Homo sapiens, CAKI-2
Protocol: In an embodiment, the antiproliferative activity of compounds MC421, MC409, MC408, MC350, MC416, MC410, MC411, MC415 and MC413 was further determined against drug-resistant renal carcinoma cell lines.
In an embodiment, cell viability assays were performed. MCF-7, Hs578T and MCF-10A cells were plated in triplicate in 96-multiwell culture plates, at 3000 cells per mL, or 5000 cells per mL for MDA-MB-468 (100 μL/well). The cells were then allowed to adhere in complete medium, over a period of 18-20 hours. Cells were subsequently treated with 7 different concentrations (from 0.1 to 40 μM or 5 to 60 μM) of compounds or control in fresh medium. HL-60, KG-1 and Jurkat cell lines were plated in 96-multiwell culture plates at 50.000 cells/100 μL per well and treated with different concentrations (from 0.001 to 2 μM) of the compounds described (or control). Cells were plated, in triplicate, at an initial density of 2000 cells/well for GAMG, 4000 cells/well for GL18 and 6000 cells/well for U87MG, in 96-well plates, and allowed to adhere for 18-20 hours. Cells were then treated with different concentrations of the compounds (0.005 to 100 μM) or with control. A498 and 786-O cells were plated at 2000 cells per mL, Caki-2 cells were plated at 3000 cells per mL and HK2 cells were plated at 2000 cells per mL in triplicate, in 96-multiwell culture plates (100 μL/well), and allowed to adhere over a period of 18-20 hours in complete medium. The cells were then treated with 7 different concentrations (from 0.1 to 40 μM or 5 to 60 μM) of compounds or control in fresh medium. After 72 h of incubation, the MTS (Promega) reduction assay was performed according to manufacturer's instructions to indirectly assess the percentage of viable cells through metabolic cell viability. After 1-2 hours of incubation with MTS in a humidified atmosphere at 37° C. and 5% CO2, absorbance was measured at 490 nm. For RCC cell lines, sulforhodamine B assay was used according to manufacturer's instructions. The data was log-transformed and the concentration of each compound that decreased the number of viable cells to 50% (IC50) relative to control was calculated using the GraphPad Prism 6 software.

[2] = tested on: acute leukemia cell line HL-60; assay: Cell viability MTS assay, HL-60; conditions: Homo sapiens, 72 hours
Protocol: (§1) In an embodiment, the antiproliferative activity of compounds MC408, MC409, MC421 and MC406 was further determined against glioma cell lines (U87, GAMG and GL18) and acute leukemia cell lines (HL-60, KG-1 and Jurkat). This was done in order to evaluate if the compounds presented an equally interesting anticancer profile in other cancer cell models. Cell viability was determined using the MTS assay, after exposure of the cells to the respective compounds for 72 hours at appropriate concentration ranges to determine the respective IC50 values.
(§2) In an embodiment, three human breast cancer cell lines Hs578T, MDA-MB-468 and MCF-7, and a normal breast cell line MCF-10A, were obtained from ATCC (American Type Culture Collection). The cancer cell lines were cultured in Dulbecco's modified Eagle medium, 4.5 g/l glucose (DMEM, Gibco) supplemented with 10% heating inactivated Fetal Bovine Serum (FBS, Gibco) and 1% antibiotic solution (Penicillin-Streptomycin, Gibco). The normal cell line was cultured in Dulbecco's Modified Eagle Medium: Nutrient Mixture F-12 (DMEM/F12, Gibco) supplemented with 5% heating inactivated FBS (Gibco), 1% antibiotic solution (Penicillin-Streptomycin, Gibco), 1% steroid hormone (Hydrocortisone, Sigma-Aldrich), 0.1% peptide hormone (Insulin, Sigma-Aldrich) and 0.01% protein complex (Cholera Toxin, Gibco). Two distinct human acute myeloid leukemia (AML) cell lines, HL-60 (FAB M2) and KG-1 (erythroleukemia-FAB M6), and one human lymphoblastic leukemia (ALL) cell line, Jurkat (T cell type), were also used. These three cell lines were obtained from German Collection of Microorganisms and Cell cultures (DMSZ®, Deutsche Sammlung von Mikroorganismen and Zellkulturen in German). Cells were cultured in RPMI 1640 medium (Biochrom®-Merck Millipore) supplemented with 10% heating inactivated FBS (Biochrom®-Merck Millipore) and 1% antibiotic/antimitotic mixture (Invitrogen®). Three human glioblastoma (GBM) cell line models, two established and commercially available cell lines (U87MG and GAMG, kind gift from Rui M. Reis) and one primary GBM culture (GLIB) were also used. GBM cells were cultures in DMEM (Biochrom-Merck Millipore), all supplemented with 10% FBS. The Renal cell carcinoma cell lines A498, 786-O, Caki-2 and HK2 were obtained from ATCC. The cancer cell line A498 was cultured in MEM medium (Biochrom®-Merck Millipore), 786-O was cultured in RPMI 1640 medium (Biochrom®-Merck Millipore), Caki-2 was cultured in Mc Coys medium (Biochrom®-Merck Millipore) and HK2 was cultured in RPMI 1640 medium (Biochrom®-Merck Millipore). All the media were supplemented with 10% heat inactivated FBS (Biochrom®-Merck Millipore) and 1% antibiotic/antimitotic mixture (Invitrogen®). All cells were grown in a humidified incubator at 37° C. and 5% CO2. […]

[3] = tested on: TNBC cell line MDA-MB-468; assay: Cell viability assay (MTS), MDA-MB-468; conditions: Homo sapiens, 72 h incubation
From the text: In an embodiment, for a comparison study, monomers and respective dimers were selected and further evaluated in Hs578t and MDA-MB-468 breast cell lines. […] These cell lines correspond to the basal-like subtype of breast cancer, included in the known triple negative subtype, since they are negative for Estrogen receptor (ER), progesterone receptor (PR) and Human epidermal growth factor receptor 2 (HER2) molecular markers. The clinical behaviour of these breast cancer subtype is very aggressive and there is still no specific molecular therapy available.
as §2

glioma cell line U87 = assay: Cell viability MTS assay, U87; conditions: Homo sapiens, 72 hours
Protocol: as §1, §2

A498 parental cells = assay: BrdU proliferation assay, A498 parental; conditions: 24 and 48 hours, IC50 and ½IC50

| SMILES | Selectivity Index (vs HK2) Caki-2 Resistant [1] | IC50 [1] [µM] | IC50 [2] [µM] | IC50 [3] [nM] | IC50 (glioma cell line U87) [µM] | effect on cell proliferation (BrdU) (A498 parental cells) |
| --- | --- | --- | --- | --- | --- | --- |
| COc1cccc2c1Oc1nc(-c3cc(F)cc(F)c3O)[nH]c1C2 [MC410, 2,4-difluoro-6-(5-methoxy-3,9-dihydrochromeno[2,3-d]imidazol-2-yl)phenol] | 2.60 | 6.41 | – | – | – | – |
| COc1cccc2c1Oc1nc(-c3ccc(F)cc3)[nH]c1C2C1c2cccc(OC)c2Oc2nc(-c3ccc(F)cc3)[nH]c21 (stereo not drawn) [MC406, 2,2′-bis(4-fluorophenyl)-5,5′-dimethoxy-1,1,9,9′-tetrahydro-9,9′-bichromeno[2,3-]imidazoles] | – | – | 0.65 | 320 | 0.17 | – |
| COc1ccc(-c2nc3c([nH]2)Cc2cccc(OC)c2O3)c(Br)c1O [MC416, 2-bromo-6-methoxy-3-(5-methoxy-3,9-dihydrochromeno[2,3-]imidazol-2-yl)phenol] | 1.97 | 1.59 | – | – | – | – |
| COc1ccccc1-c1nc2c([nH]1)Cc1cccc(OC)c1O2 [MC411, 5-methoxy-2-(2-methoxyphenyl)-3,9-dihydrochromeno[2,3-]imidazoles] | 1.92 | 1.62 | – | – | – | – |
| COc1cccc2c1Oc1nc(-c3ccccc3)[nH]c1C2 [MC350, 5-methoxy-2-phenyl-3,9-dihydrochromeno[2,3-d]imidazoles] | 32.28 | 0.646 | – | – | – | – |
| COc1cccc2c1Oc1nc(-c3ccc(Br)cc3)[nH]c1C2C1c2cccc(OC)c2Oc2nc(-c3ccc(Br)cc3)[nH]c21 (stereo not drawn) [MC421, 2,2′-bis(4-bromophenyl)-5,5′-dimethoxy-1,1,9,9′-tetrahydro-9,9′-bichromeno[2,3-]imidazoles] | 123.50 | 0.02 | 0.25 | 440 | 0.034 | significant decrease in cell proliferation |
| CCOc1ccc(-c2nc3c([nH]2)Cc2cccc(OC)c2O3)cc1 [MC415, 2-(4-ethoxyphenyl)-5-methoxy-3,9-dihydrochromeno[2,3-d]imidazoles] | 64.5 | 0.08 | – | – | – | – |
| COc1cccc2c1Oc1nc(-c3ccc(F)cc3)[nH]c1C2 [MC409, 2-(4-fluorophenyl)-5-methoxy-3,9-dihydrochromeno[2,3-d]imidazoles] | 9.56 | 0.33 | 0.65 | 120 | 0.37 | – |
| COc1cccc2c1Oc1nc(-c3ccc(O)cc3)[nH]c1C2 [MC413, 4-(5-methoxy-3,9-dihydrochromeno[2,3-d]imidazol-2-yl)phenol] | 29.6 | 0.335 | – | – | – | significant decrease in cell proliferation |
| COc1cccc2c1Oc1nc(-c3ccc(Br)cc3)[nH]c1C2 [MC408, 2-(4-bromophenyl)-5-methoxy-3,9-dihydrochromeno[2,3-d]imidazoles] | 123.79 | 0.028 | 0.57 | 27 | 1.85 | significant decrease in cell proliferation |
